Data reported in patent US9540649B2, “Method for opening tight junctions” (The Provost, Fellows and Scholars of the College of the …, priority 2007, dated 2017).
Entries after “also recorded” stand apart in the source; their conditions may differ.

Key:
claudin-5 = assay: Immunohistochemical analysis of claudin-5 expression and localisation in brain microvessels; type: in vivo, C57/Bl6 mice
Procedure: (§1) Rapid high pressure, high volume tail vein injections were carried out (Kiang et al., 2005). Wild type C57/Bl6 mice of weight 20-30 g were individually restrained inside a 60-ml volume plastic tube. The protruding tail was warmed for 5 minutes prior to injection under a 60-W lamp and the tail vein clearly visualized by illumination from below. 20 micrograms of targeting siRNA, or non-targeting siRNA made up with PBS to a volume in mls of 10% of the body weight in grams or PBS alone, was injected into the tail vein at a rate of 1 ml/sec using a 26-gauge (26 G 3/8) needle. After 24, 48, 72 hours and 1 week, protein was isolated from total brain tissue by crushing brains to a fine powder in liquid N2 and subsequently using lysis buffer containing 62.5 mM Tris, 2% SDS, 10 mM Dithiothreitol, 10 μl protease inhibitor cocktail/100 ml (Sigma Aldrich, Ireland). The homogenate was centrifuged at 10,000 g for 20 mins @4° C., and the supernatant was removed for claudin-5 analysis.
Brain cryosections were blocked with 5% Normal Goat Serum (NGS) in PBS for 20 mins at room temperature. Primary antibody (Rabbit anti-Claudin-5, Zymed, California) was incubated on sections overnight at 4° C. […] A secondary rabbit IgG-Cy3 antibody was incubated with the sections at 37° C. for 2 hours followed by 3 washes with PBS. All sections were counterstained with DAPI for 30 seconds at a dilution of 1:5000 of a stock 1 mg/ml solution. Analysis of stained sections was performed with an Olympus FluoView™ FV1000 Confocal microscope.

claudin-5 mRNA = assay: Real-time RT-PCR analysis of claudin-5 mRNA in brain post-injection of siRNA; type: in vivo, C57/Bl6 mice
Procedure: as §1
At the same time points post-delivery of siRNA total RNA was isolated from brains using Trizol (Invitrogen). RNA was then treated with RNase-free DNase (Promega, Madison, Wis., USA) and then chloroform extracted, isopropanol precipitated, washed with 75% RNA grade ethanol and resuspended in 100 μl RNase-free water.
RNA was analyzed by real-time RT-PCR using a Quantitect Sybr Green Kit as outlined by the manufacturer (Qiagen-Xeragon) on a LightCycler (Roche Diagnostics, Lewes, UK) under the following conditions: 50° C. for 20 min; 95° C. for 15 min; 38 cycles of 94° C. for 15 s, 57° C. for 20 s, 72° C. for 10 s.
cDNA fragments were amplified from claudin-5 and β-actin for each RNA sample a minimum of four times. Results were expressed as a percentage of those from the similarly standardized appropriate control experiment. The reciprocal values compared to the non-targeting control siRNA gave percentage suppression of claudin-5 expression. Mean values, standard deviations, and pooled t tests were calculated using GraphPad Prism©. Differences were deemed statistically significant at P<0.05.

## claudin-5 siRNA: siRNA, sense CGUUGGAAAUUCUGGGUCUUU (SEQ ID NO: 1), antisense AGACCCAGAAUUUCCAACGUU (SEQ ID NO: 2) (listed as RNA, chemistry not given here)
claudin-5; 24 hours post delivery
  claudin-5 staining pattern in brain microvessels, immunohistochemistry: decreased and non-continuous; also recorded: less intense
claudin-5; 48 hours post injection
  claudin-5 staining pattern in brain microvessels, immunohistochemistry: striking decrease in expression; also recorded: marked decrease; also recorded: dramatically reduced
claudin-5; 48 hours post injection, listed as siRNA targeting claudin-5
  claudin-5 staining pattern in brain microvessels, immunohistochemistry: highly fragmented and discontinuous
claudin-5; 72 hours post-injection
  claudin-5 staining pattern in brain microvessels, immunohistochemistry: evident, yet non-continuous; also recorded: evident, yet not as intense as the control groups; also recorded: still attenuated
claudin-5 mRNA; 1 week post-injection, vs non-targeting control
  claudin-5 mRNA level, RT-PCR, brain: not significantly changed
claudin-5 mRNA; 24 hours post-injection
  claudin-5 mRNA levels suppressed with respect to the non-targeting control siRNA: up to 95%
claudin-5 mRNA; 24 hours post-injection, vs control groups
  claudin-5 mRNA level, RT-PCR, brain: significantly decreased
claudin-5 mRNA; 24 hours post-injection, vs control groups, listed as siRNA targeting claudin-5
  claudin-5 mRNA level, RT-PCR, brain: significant decrease
claudin-5 mRNA; 48 hours post-injection, vs control groups
  claudin-5 mRNA level, RT-PCR, brain: showing suppression
claudin-5 mRNA; 72 hours post-injection, vs non-targeting control
  claudin-5 mRNA level, RT-PCR, brain: not significantly changed
